According to paper PMC9067978, “Design, synthesis, and molecular docking studies of novel pomalidomide-based PROTACs as potential anti-cancer agents targeting EGFR^WT and EGFR^T790M” (Journal of Enzyme Inhibition and Medicinal Chemistry, 2022):
Entries after “also recorded” stand apart in the source; their conditions may differ.

How the values were obtained:
HepG-2 = assay: MTT anti-proliferative assay, HepG-2; conditions: Homo sapiens, HepG2, read-out: IC50 HepG-2
Protocol: (§5) The anti-proliferative activity was quantified in the following way. At a density of 3–8 × 10^3 cells per well, human cancer cell lines were introduced to 96-well plates. The wells were then incubated at 37 °C for 12 hours in 5% CO2 incubator. To determine the DMSO content, the culture media was swapped with 0.1 ml of fresh medium containing graded amounts of the test compounds for each well. Incubation time for the wells was two days. The cells were then cultured in 100 µl MTT solution (5 µg ml^−1) for another 4 hours in each well.
(§6) The absorbance of each well was measured at 490 nm with an automated ELISA reader system (TECAN, CHE) after MTT-formazan crystals were dissolved in 100 µl of DMSO. The IC50 values were calculated using nonlinear regression fitting models (Graph Pad, Prism Version 5). The results were expressed as means ± SD and were based on the average of three separate, duplicate trials.

MCF-7 = assay: MTT anti-proliferative assay, MCF-7; conditions: Homo sapiens, MCF7, read-out: IC50 MCF-7
Protocol: as §5, §6

HCT-116 = assay: MTT anti-proliferative assay, HCT-116; conditions: Homo sapiens, HCT-116, read-out: IC50 HCT-116
Protocol: as §5, §6

EGFR^T790M = molecular target: T1, EGFR^T790M (Homo sapiens, UniProt P00533, T790M); assay: EGFR^T790M kinase inhibitory assay (HTRF); format: biochemical; conditions: ATP 1.65 µM, mean ± S.D of three experiments, read-out: EGFR^790M IC50
T1 construct: purchased Sigma
Protocol: (§1) This test used HTRF[44] assay with EGFR^WT and EGFR^T790M (Sigma). For the first 5 minutes, the evaluated compounds were incubated with EGFR^WT and/or EGFR^T790M and their substrates in the enzymatic buffer. […] The assay was performed at 37 °C for 30 minutes. The addition of EDTA-containing detection reagents halted the process. After one hour detection period, GraphPad Prism 5.0 was used to calculate the IC50 values. For each concentration, three separate trials were carried out.

EGFR = molecular target: T2, EGFR (Homo sapiens, UniProt P00533); assay: Western blotting, EGFR degradation in A549 cells; format: cell-based
T2 construct: EGFR degradation activities of compounds in A549 cells; endogenous in cells; host or cells: A549
Protocol: Following this, the target compounds 15–21 tethering various E3 ligases ligand were chosen as representative PROTACs for further degradation study based on temporal data.
Figure 4. (A) EGFR degradation activities of compounds in A549 cells. Cells were treated for 48 h with concentration of 0.1 and 1 µM. (B) Effects of concentration-dependent EGFR degradation by compounds 15–21 in A549 cell lines. Cells were treated for 48 h with a concentration from 1 nM to 10 µM. EGFR protein was examined by Western blotting analysis and EGFR degradation rate was quantified by densitometry and normalised to the corresponding density of β-actin protein (n ¼ 3). TEXT PRINTED IN THE PICTURE: (B) Comp 15: DC50 = 43.4 nm | (B) Comp 16: DC50= 32.9 nm DOUBTS OF THE COPYIST ABOUT THIS PICTURE: Comp 15, DC50: 43.4 is small blurred print; the 3 could be 8 and the digits are not certain / Comp 16, DC50: 32.9 is small blurred print; the 3 could be 8 and the 9 could be 8 or 0
We set nine concentration gradients ranging from […] to 10 µM to determine the degradation activity of all tested compounds and calculated the DC50 (concentration that caused deletion of 50% of EGFR) values.
(§2) At a concentration of 100 nM, the time-dependent degradation activities of compounds 15–21 were also examined (Figure 5(A)).
Figure 5. (A) EGFR time-dependent degradation by compound 16 in A549 cell lines. Cells were treated with100 nM of 15–21 for indicated time points. Western blotting was used to evaluate EGFR protein, and densitometry was used to measure EGFR degradation, which was adjusted to the density of β-actin protein (n ¼2). (B) Compounds 15 and 16 have EGFR degradation and phosphorylation inhibitory action in A549 cells. The cells were exposed to concentrations of 0.1, 0.3, and 1 µM. Erlotinib were utilised for comparison. TEXT PRINTED IN THE PICTURE: (A) Comp 15: Dmax = 85 % @ 96 h; Degradation: 9 (4 h; 100 nM); Degradation: 22 (8 h; 100 nM); Degradation: 42 (12 h; 100 nM); Degradation: 83 (24 h; 100 nM); Degradation: 84 (36 h; 100 nM); Degradation: 82 (48 h; 100 nM); Degradation: 82 (72 h; 100 nM); Degradation: 85 (96 h; 100 nM) | (A) Comp 16: Dmax = 96 % @72 h; Degradation: 32 (4 h; 100 nM); Degradation: 43 (8 h; 100 nM); Degradation: 67 (12 h; 100 nM); Degradation: 69 (24 h; 100 nM); Degradation: 78 (36 h; 100 nM); Degradation: 85 (48 h; 100 nM); Degradation: 96 (72 h; 100 nM); Degradation: 94 (96 h; 100 nM) DOUBTS OF THE COPYIST ABOUT THIS PICTURE: Comp 15, Dmax: print is blurred, 85 % @ 96 h is the best reading (85 or 86) / Comp 16, Dmax: print is small and blurred, 96 % @72 h is the best reading (96 or 95; the % sign is unclear) / Comp 15, Degradation row: print is blurred, 83/84/82/82/85 are best readings (3, 5, 8 are hard to tell apart) / Comp 16, Degradation row: print is blurred, 67/69/78/85/96/94 are best readings (5, 6, 8, 9 are hard to tell apart) / The Degradation rows are printed under the blot lanes with no unit. The value 0 under the 0.1 % DMSO control lane was not assigned to any compound.
Cells were seeded in 6-well plates at 1 × 10^6 per well, incubated at 37 °C with 5% CO2 for 24 h before drug exposure. Cells were treated with different concentrations of synthesised compounds for […], then collected and suspended in lysis buffer (Beyotime) and centrifuged for 20 min at 12000 rpm, later removed the insoluble material. […] The results were detected by an enhanced chemiluminescence system (Mill-pore). […]

A549 = assay: MTT anti-proliferative assay, A549; conditions: Homo sapiens, A549, read-out: IC50 A549
Protocol: as §5, §6

EGFR phosphorylation = assay: Western blotting, EGFR phosphorylation in A549 cells; format: cell-based, human; conditions: A549 cells, 0.1, 0.3 and 1 µM, erlotinib for comparison
Protocol: as §2
(§3) Figure 5. (A) EGFR time-dependent degradation by compound 16 in A549 cell lines. Cells were treated with100 nM of 15–21 for indicated time points. Western blotting was used to evaluate EGFR protein, and densitometry was used to measure EGFR degradation, which was adjusted to the density of β-actin protein (n ¼2). (B) Compounds 15 and 16 have EGFR degradation and phosphorylation inhibitory action in A549 cells. The cells were exposed to concentrations of 0.1, 0.3, and 1 µM. Erlotinib were utilised for comparison. […]
(§4) Cells were seeded in 6-well plates at 1 × 10^6 per well, incubated at 37 °C with 5% CO2 for 24 h before drug exposure. […] The results were detected by an enhanced chemiluminescence system (Mill-pore). […]

Akt phosphorylation = assay: Western blotting, Akt phosphorylation in A549 cells; format: cell-based, human; conditions: A549 cells, 0.1, 0.3 and 1 µM, erlotinib for comparison
Protocol: as §2, §3, §4

EGFR^WT = molecular target: T3, EGFR^WT (Homo sapiens, UniProt P00533); assay: EGFR^WT kinase inhibitory assay (HTRF); format: biochemical; conditions: ATP 1.65 µM, mean ± S.D of three experiments
T3 construct: purchased Sigma
Protocol: as §1

T3 sequence (P00533 25-1210): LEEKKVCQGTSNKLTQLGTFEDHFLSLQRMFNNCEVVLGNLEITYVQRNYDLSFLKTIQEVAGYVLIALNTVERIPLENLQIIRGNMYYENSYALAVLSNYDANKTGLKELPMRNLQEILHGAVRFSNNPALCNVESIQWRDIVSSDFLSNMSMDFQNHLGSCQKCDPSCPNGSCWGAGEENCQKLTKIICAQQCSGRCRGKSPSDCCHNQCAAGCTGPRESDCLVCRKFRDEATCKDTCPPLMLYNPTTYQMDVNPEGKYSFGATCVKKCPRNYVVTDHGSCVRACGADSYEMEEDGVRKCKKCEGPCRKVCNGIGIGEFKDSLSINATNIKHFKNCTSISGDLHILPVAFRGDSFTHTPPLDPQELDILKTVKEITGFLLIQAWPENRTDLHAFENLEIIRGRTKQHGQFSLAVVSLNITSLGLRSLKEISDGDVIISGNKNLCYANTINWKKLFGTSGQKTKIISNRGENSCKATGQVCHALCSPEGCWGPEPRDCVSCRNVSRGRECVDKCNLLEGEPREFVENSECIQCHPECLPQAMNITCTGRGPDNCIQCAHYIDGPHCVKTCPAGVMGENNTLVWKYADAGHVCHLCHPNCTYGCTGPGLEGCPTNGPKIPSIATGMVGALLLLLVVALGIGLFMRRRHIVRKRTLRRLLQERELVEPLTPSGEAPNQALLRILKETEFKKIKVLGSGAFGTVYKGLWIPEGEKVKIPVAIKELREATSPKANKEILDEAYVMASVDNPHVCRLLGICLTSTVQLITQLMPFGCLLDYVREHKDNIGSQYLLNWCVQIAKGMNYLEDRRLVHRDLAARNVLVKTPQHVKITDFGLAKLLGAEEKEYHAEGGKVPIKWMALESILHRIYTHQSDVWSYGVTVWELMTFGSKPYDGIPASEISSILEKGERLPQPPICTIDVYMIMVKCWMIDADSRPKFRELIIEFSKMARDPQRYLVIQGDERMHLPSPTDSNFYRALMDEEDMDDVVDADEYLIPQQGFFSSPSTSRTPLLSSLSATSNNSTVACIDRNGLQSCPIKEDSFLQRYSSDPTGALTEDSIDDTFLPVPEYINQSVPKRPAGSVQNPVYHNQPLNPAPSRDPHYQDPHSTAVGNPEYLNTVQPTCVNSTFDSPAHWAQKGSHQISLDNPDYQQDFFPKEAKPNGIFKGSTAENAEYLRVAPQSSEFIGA
T1 sequence (P00533 25-1210 T790M): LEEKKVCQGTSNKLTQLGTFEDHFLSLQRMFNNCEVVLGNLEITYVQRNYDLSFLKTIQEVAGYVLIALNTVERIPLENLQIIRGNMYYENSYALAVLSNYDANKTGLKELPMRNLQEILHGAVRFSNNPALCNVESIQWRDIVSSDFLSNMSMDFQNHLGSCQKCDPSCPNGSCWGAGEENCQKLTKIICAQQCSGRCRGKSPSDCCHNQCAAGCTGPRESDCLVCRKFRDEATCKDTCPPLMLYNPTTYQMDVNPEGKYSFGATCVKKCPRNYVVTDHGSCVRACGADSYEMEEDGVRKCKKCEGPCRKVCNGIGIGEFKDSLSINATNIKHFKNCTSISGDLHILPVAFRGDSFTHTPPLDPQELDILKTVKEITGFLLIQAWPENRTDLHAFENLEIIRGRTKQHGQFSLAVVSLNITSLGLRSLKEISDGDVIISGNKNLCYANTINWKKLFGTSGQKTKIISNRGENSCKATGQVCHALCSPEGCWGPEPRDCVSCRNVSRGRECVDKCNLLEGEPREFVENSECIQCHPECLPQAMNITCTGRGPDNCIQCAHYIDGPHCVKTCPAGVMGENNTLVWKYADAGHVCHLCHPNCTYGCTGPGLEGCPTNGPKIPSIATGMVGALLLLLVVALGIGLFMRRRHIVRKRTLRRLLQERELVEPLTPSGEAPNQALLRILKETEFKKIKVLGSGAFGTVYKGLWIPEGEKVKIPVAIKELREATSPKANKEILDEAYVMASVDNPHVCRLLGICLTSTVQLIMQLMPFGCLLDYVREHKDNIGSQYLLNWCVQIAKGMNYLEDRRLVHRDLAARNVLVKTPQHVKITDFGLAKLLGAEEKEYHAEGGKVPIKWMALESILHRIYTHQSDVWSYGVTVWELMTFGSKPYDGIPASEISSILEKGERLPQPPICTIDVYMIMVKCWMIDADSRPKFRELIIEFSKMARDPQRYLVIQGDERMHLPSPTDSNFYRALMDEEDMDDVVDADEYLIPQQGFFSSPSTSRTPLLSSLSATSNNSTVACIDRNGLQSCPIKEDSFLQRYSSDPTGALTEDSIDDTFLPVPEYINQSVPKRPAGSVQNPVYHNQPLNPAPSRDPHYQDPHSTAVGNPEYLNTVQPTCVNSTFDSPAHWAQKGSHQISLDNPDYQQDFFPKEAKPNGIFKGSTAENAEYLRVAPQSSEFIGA
T2 sequence (P00533 25-1210): as the sequence (P00533 25-1210) above

| SMILES | IC50 (HepG-2) | IC50 (MCF-7) | IC50 (HCT-116) | IC50 (EGFR^T790M) | Dmax at 0.1 µM (EGFR; A549, A549 cells, 100 nM, time course, reached at 96 h (15) and 72 h (16), read-out: Dmax, maximum EGFR degradation rate) | DC50 (EGFR; A549 cells, 48 h, Western blotting densitometry, read-out: DC50 (concentration that caused deletion of 50% of EGFR)) | IC50 (A549) | inhibition of EGFR phosphorylation, in words (EGFR phosphorylation) | inhibition of Akt phosphorylation, in words (Akt phosphorylation) | IC50 (EGFR^WT) |
| --- | --- | --- | --- | --- | --- | --- | --- | --- | --- | --- |
| COc1cccc2c1C(=O)c1c(O)c3c(c(O)c1C2=O)C[C@@](O)(C(=O)CO)C[C@@H]3O[C@H]1C[C@H](N)[C@H](O)[C@H](C)O1 [Doxorubicin, reference compound] | 6.22 ± 0.45 µM | 7.89 ± 0.55 µM | 5.52 ± 0.25 µM |  |  |  |  |  |  |  |
| O=C1CCC(N2C(=O)c3cccc(NC(=O)COCCOCCn4nc5[nH]c6ccccc6nc-5c4=O)c3C2=O)C(=O)N1 (centres unmarked) [Compound 15, N-(2-(2,6-dioxopiperidin-3-yl)-1,3-dioxoisoindolin-4-yl)-2-(2-(2-(3-oxo-3,9-dihydro-2H-pyrazolo[3,4-b]quinoxalin-2-yl)ethoxy)ethoxy)acetamide] | 3.89 ± 0.05 µM | 7.87 ± 0.31 µM | 6.19 ± 0.27 µM | 6.89 ± 0.31 µM | 86% | 0.0434 µM | 3.09 ± 0.15 µM | effectively displayed inhibitory activity | effectively displayed inhibitory activity; also recorded: comparable to erlotinib | 0.22 ± 0.05 µM |
| O=C(CSc1nc2ccccc2s1)NNCCOCCOCC(=O)Nc1cccc2c1C(=O)N(C1CCC(=O)NC1=O)C2=O (centres unmarked) [Compound 21, 2-(2-(2-(2-(2-(benzo[d]thiazol-2-ylthio)acetyl)hydrazinyl)ethoxy)ethoxy)-N-(2-(2,6-dioxopiperidin-3-yl)-1,3-dioxoisoindolin-4-yl)acetamide] | 9.86 ± 0.37 µM | 16.3 ± 0.71 µM | 13 ± 0.52 µM | 15.3 ± 0.61 µM |  |  | 7.27 ± 0.16 µM |  |  | 2.27 ± 0.16 µM |
| CN1C(=O)C(=Nc2ccc(C(=O)NNCCOCCOCC(=O)Nc3cccc4c3C(=O)N(C3CCC(=O)NC3=O)C4=O)cc2)c2ccccc21 (centres unmarked) [Compound 19, N-(2-(2,6-dioxopiperidin-3-yl)-1,3-dioxoisoindolin-4-yl)-2-(2-(2-(2-(4-(1-methyl-2-oxoindolin-3-ylideneamino)benzoyl)hydrazinyl)ethoxy)ethoxy)acetamide] | 8.26 ± 0.36 µM | 16.3 ± 0.71 µM | 9.12 ± 0.38 µM | 14.1 ± 0.51 µM |  |  | 6.54 ± 0.32 µM |  |  | 3.02 ± 0.12 µM |
| O=C1CCC(N2C(=O)c3cccc(NC(=O)COCCOCCNNC(=O)c4ccc(N=C5C(=O)Nc6ccccc65)cc4)c3C2=O)C(=O)N1 (centres unmarked) [Compound 18, N-(2-(2,6-dioxopiperidin-3-yl)-1,3-dioxoisoindolin-4-yl)-2-(2-(2-(2-(4-((2-oxoindolin-3-ylidene)amino)benzoyl)hydrazineyl)ethoxy)ethoxy)acetamide] | 6.26 ± 0.56 µM | 8.26 ± 0.25 µM | 6.79 ± 0.27 µM | 8.16 ± 0.28 µM |  |  | 4.67 ± 0.13 µM |  |  | 0.65 ± 0.03 µM |
| O=C1CCC(N2C(=O)c3cccc(NC(=O)COCCOCCOCCNC(=O)c4nc5ccccc5[nH]c4=O)c3C2=O)C(=O)N1 (centres unmarked) [Compound 17, N-(2-(2-(2-(2-(2-(2,6-dioxopiperidin-3-yl)-1,3-dioxoisoindolin-4-ylamino)-2-oxoethoxy)ethoxy)ethoxy)ethyl)-3-oxo-3,4-dihydroquinoxaline-2-carboxamide] | 4.09 ± 0.11 µM | 7.96 ± 0.35 µM | 6.29 ± 0.35 µM | 6.26 ± 0.32 µM |  |  | 3.19 ± 0.19 µM |  |  | 0.19 ± 0.09 µM |
| O=C(CSc1nc2ccccc2o1)NNCCOCCOCC(=O)Nc1cccc2c1C(=O)N(C1CCC(=O)NC1=O)C2=O (centres unmarked) [Compound 20, 2-(2-(2-(2-(2-(benzo[d]oxazol-2-ylthio)acetyl)hydrazinyl)ethoxy)ethoxy)-N-(2-(2,6-dioxopiperidin-3-yl)-1,3-dioxoisoindolin-4-yl)acetamide] | 9.26 ± 0.39 µM | 14.3 ± 0.69 µM | 12.3 ± 0.71 µM | 16.3 ± 0.69 µM |  |  | 8.27 ± 0.25 µM |  |  | 0.77 ± 0.05 µM |
| C#Cc1cccc(Nc2ncnc3cc(OCCOC)c(OCCOC)cc23)c1 [Erlotinib, reference compound] | 13.1 ± 1.28 µM | 21.8 ± 1.85 µM | 16.8 ± 1.65 µM |  |  |  | 19.3 ± 1.85 µM |  |  |  |
